# Values of other authors in paper PMC4104431 (Nuclear medicine and biology, 2014).
# Columns and labels:
# CXCR4 = CXCR4 (Homo sapiens, UniProt P61073)
# Sequence of CXCR4 (P61073 whole entry): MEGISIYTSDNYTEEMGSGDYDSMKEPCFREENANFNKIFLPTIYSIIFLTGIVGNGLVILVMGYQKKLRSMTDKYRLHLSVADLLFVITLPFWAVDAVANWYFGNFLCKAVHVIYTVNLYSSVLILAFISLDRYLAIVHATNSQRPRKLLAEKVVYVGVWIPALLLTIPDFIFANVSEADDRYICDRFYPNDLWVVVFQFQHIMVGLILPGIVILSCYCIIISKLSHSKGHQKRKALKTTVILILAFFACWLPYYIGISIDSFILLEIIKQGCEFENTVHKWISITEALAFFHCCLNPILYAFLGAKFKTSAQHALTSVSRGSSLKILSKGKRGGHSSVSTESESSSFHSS
Metabolic stability,Fold increase in affinity for CXCR4 when bound to Cu(II) (CXCR4) [fold],Structure (SMILES)
metabolically stable,–,c1ccc(CNCc2ccc(CN3CCCNCCNCCCNCC3)cc2)nc1 [AMD3465]
metabolically stable,7,c1cc(CN2CCCNCCNCCCNCC2)ccc1CN1CCCNCCNCCCNCC1 [AMD3100]
